Measurements taken from the RepoRT retention time repository.

Test: HILIC, Waters ACQUITY UPLC BEH Amide, 100 × 2.1 mm, 1.7 µm; A: water + 0.125% formic acid + 10 mM ammonium formate; B: 5% water + 95% acetonitrile + 0.125% formic acid + 10 mM ammonium formate; gradient (min/%B) 0/100 2/100 7.7/70 9.5/40 10.25/30 12.75/100 17/100
Settings: stereoisomer not certain

| LC retention time | SMILES |
| --- | --- |
| 3.89 min | Nc1ccc(O)c(C(=O)O)c1 |
| 1.07 min | Nc1nc2ccc(Cl)cc2c2nc(-c3ccco3)nn12 |
| 4.85 min | NC1CCN(c2cccc(Cl)n2)CC1 |
| 1.5 min | CC(=O)NCCCCCCNC(C)=O |
| 1.12 min | COCC1=C(C(=O)OC(C)OC(=O)OC(C)C)N2C(=O)C(NC(=O)C(=NOC)c3csc(N)n3)C2SC1 (stereo not given) |
| 0.94 min | Cc1sc(N)c(C(=O)c2cccc(C(F)(F)F)c2)c1C |
| 9.52 min | Cc1cc2nc3c(=O)[nH]c(=O)nc-3n(CC(O)C(O)C(O)COP(=O)(O)OP(=O)(O)OCC3OC(n4cnc5c(N)ncnc54)C(O)C3O)c2cc1C (stereo not given) |
| 8.28 min | Cc1cn(C2CC(O)C(COP(=O)(O)O)O2)c(=O)[nH]c1=O (stereo not given) |
| 2.21 min | CN1CCN(c2nc3cc(C(F)(F)F)ccc3n3cccc23)CC1 |
| 4.88 min | OC1CCCCC1O (stereo not given) [1,2-Cyclohexanediol] |
| 5.77 min | O=C1CCCCC1=O [1,2-Cyclohexanedione] |
| 1.47 min | O=C1CCCC(=O)C1 [1,3 Cyclohexanedione] |
| 1.01 min | CC12CCC3c4ccc(O)cc4CCC3C1CCC2=O (stereo not given) [1,3,5(10)-Estratrien-3-ol-17-one] |
| 1.83 min | Cn1c(=O)c2c([nH]c(=O)n2C)n(C)c1=O [1,3,7-Trimethyluric acid] |
| 1.56 min | O=C(O)C1CCC(C(=O)O)CC1 (stereo not given) [1,4-Cyclohexanedicarboxylic acid] |
| 1.15 min | O=C1CCC(=O)CC1 [1,4-Cyclohexanedione] |
| 0.92 min | OCC1OCC(O)C(O)C1O (stereo not given) [1,5-Anhydrosorbitol] |
| 4.09 min | Cn1c(=O)[nH]c2[nH]c(=O)n(C)c2c1=O [1,7-Dimethyluric acid] |
| 1.69 min | Cn1c(=O)[nH]c2ncn(C)c2c1=O [1,7-Dimethylxanthine] |
| 1.37 min | CC(=O)n1ccnc1 [1-Acetylimidazole] |
| 7.46 min | Cn1cnc2c(ncn2C2OC(CO)C(O)C2O)c1=N (stereo not given) [1-Methyladenosine] |

| LC retention time | SMILES |
| --- | --- |
| 5.84 min | Cn1c(N)nc2c(ncn2C2OC(CO)C(O)C2O)c1=O (stereo not given) [1-Methylguanosine] |
| 6.26 min | C[n+]1cccc(C(N)=O)c1 [1-Methylnicotinamide] |
| 4.99 min | Cn1cc(C2OC(CO)C(O)C2O)c(=O)[nH]c1=O (stereo not given) [1-Methylpseudouridine] |
| 6.38 min | Cn1cc(CC(N)C(=O)O)c2ccccc21 (stereo not given) [1-Methyltryptophan] |
| 2.18 min | Cn1c(=O)[nH]c2[nH]c(=O)[nH]c2c1=O [1-Methyluric acid] |
| 0.99 min | CCCCCCCCCCCCCCCCCC(=O)OCC(O)CO (stereo not given) [1-Monostearin] |
| 3.44 min | O=c1[nH]cnc2c1ncn2C1CCC(CO)O1 (stereo not given) [2',3'-Dideoxyinosine] |
| 8.63 min | Nc1ncnc2c1ncn2C1CC(O)C(COP(=O)(O)O)O1 (stereo not given) [2'-Deoxyadenosine-5'-monophosphate] |
| 3.92 min | Nc1ncnc2c1ncn2C1CC(O)C(CO)O1 (stereo not given) [2'-Deoxyadenosine] |
| 5.87 min | Nc1ccn(C2CC(O)C(CO)O2)c(=O)n1 (stereo not given) [2'-Deoxycytidine] |
| 9.43 min | Nc1nc2c(ncn2C2CC(OP(=O)(O)O)C(CO)O2)c(=O)[nH]1 (stereo not given) [2'-Deoxyguanosine 3'-monophosphate] |
| 9.25 min | Nc1nc2c(ncn2C2CC(O)C(COP(=O)(O)O)O2)c(=O)[nH]1 (stereo not given) [2'-Deoxyguanosine 5'-monophosphate] |
| 6.4 min | Nc1nc2c(ncn2C2CC(O)C(CO)O2)c(=O)[nH]1 (stereo not given) [2'-Deoxyguanosine] |
| 4.93 min | COC1C(O)C(CO)OC1n1cc(C)c(N)nc1=O (stereo not given) [2'-O-Methyl-5-methylcytidine] |
| 1.75 min | COC1C(O)C(CO)OC1n1cc(C)c(=O)[nH]c1=O (stereo not given) [2'-O-Methyl-5-methyluridine] |
| 2.6 min | COC1C(O)C(CO)OC1n1cnc2c(N)ncnc21 (stereo not given) [2'-O-Methyladenosine] |
| 5.02 min | COC1C(O)C(CO)OC1n1ccc(N)nc1=O (stereo not given) [2'-O-Methylcytidine] |
| 5.72 min | COC1C(O)C(CO)OC1n1cnc2c(=O)[nH]c(N)nc21 (stereo not given) [2'-O-Methylguanosine] |
| 4.06 min | COC1C(O)C(CO)OC1n1cnc2c(=O)[nH]cnc21 (stereo not given) [2'-O-Methylinosine] |
| 2.24 min | COC1C(O)C(CO)OC1n1ccc(=O)[nH]c1=O (stereo not given) [2'-O-Methyluridine] |
| 3.34 min | CC(O)C(C)O (stereo not given) [2,3-Butanediol] |

| LC retention time | SMILES |
| --- | --- |
| 4.54 min | Nc1ccn(C2CCC(CO)O2)c(=O)n1 (stereo not given) [2,3-Dideoxycytidine] |
| 1.73 min | O=c1ccn(C2CCC(CO)O2)c(=O)[nH]1 (stereo not given) [2,3-Dideoxyuridine] |
| 9.88 min | NC(CCCC(N)C(=O)O)C(=O)O (stereo not given) [2,6-Diaminopimelic acid] |
| 1.53 min | O=c1ccc2cccc(O)c2[nH]1 [2,8-Quinolinediol] |
| 1.27 min | COc1cccc(C(=O)O)c1N [2-Amino-3-methoxybenzoic acid] |
| 2.05 min | NCCS [2-Aminoethanethiol] |
| 1.22 min | Nc1ccccc1O [2-Aminophenol] |
| 1.47 min | OCC1OC(n2cnc3c(NC4CCCC4)nc(Cl)nc32)C(O)C1O (stereo not given) [2-Chloro-N6-cyclopentyladenosine] |
| 2.69 min | Nc1nc(Cl)nc2c1ncn2C1OC(CO)C(O)C1O (stereo not given) [2-Chloroadenosine] |
| 9.16 min | Nc1ccn(C2CC(O)C(COP(=O)(O)O)O2)c(=O)n1 (stereo not given) [2-Deoxycytidine-5-monophosphoric acid] |
| 1.42 min | O=CCC(O)C(O)CO (stereo not given) [2-Deoxyribose] |
| 2.96 min | O=c1ccn(C2CC(O)C(CO)O2)c(=O)[nH]1 (stereo not given) [2-Deoxyuridine] |
| 1.39 min | CCCC=CC=O [2-Hexenal] |
| 1.29 min | CC(C)C(O)C(=O)O (stereo not given) [2-Hydroxy-3-methylbutyric acid] |
| 1.57 min | CC(C)CC(O)C(=O)O (stereo not given) [2-Hydroxy-4-methylpentanoic acid] |
| 4.36 min | O=C(CO)c1ccccc1 [2-Hydroxyacetophenone] |
| 1.01 min | O=C(C=Cc1ccccc1O)c1ccccc1 [2-Hydroxychalcone] |
| 0.91 min | O=C(O)CCC(O)C(=O)O (stereo not given) [2-Hydroxyglutaric acid] |
| 1.51 min | O=c1ccc2ccccc2[nH]1 [2-Hydroxyquinoline] |
| 1.36 min | Oc1cc2ccccc2[nH]1 [2-Indolinone] |
| 8.71 min | C=Cc1ccc(O)c(OC)c1 [2-Methoxy-4-vinylphenol] |

| LC retention time | SMILES |
| --- | --- |
| 1.01 min | CCCCCCCCCCCCCC(=O)OC(CO)CO [2-Myristoylglycerol] |
| 0.99 min | CCCCCCCCCCCCCCCC(=O)OC(CO)CO [2-Palmitoylglycerol] |
| 5.37 min | CCC(=O)NCC(=O)O [2-Propanamidoacetic acid] |
| 2.05 min | O=c1cccc[nH]1 [2-Pyridone] |
| 5.33 min | Nc1ccn(C2OC(CO)C(O)C2O)c(=S)n1 (stereo not given) [2-Thiocytidine] |
| 2.48 min | O=c1ccn(C2OC(CO)C(O)C2O)c(=S)[nH]1 (stereo not given) [2-Thiouridine] |
| 9.47 min | OCC1OC(OC2C(O)OC(CO)C(O)C2O)C(O)C(O)C1O (stereo not drawn) [2-alpha-Mannobiose] |
| 7.29 min | Nc1ncnc2c1ncn2C1CC2OP(=O)(O)OCC2O1 (stereo not given) [3',5'-Cyclic dAMP] |
| 5.09 min | COC1C(CO)OC(n2ccc(N)nc2=O)C1O (stereo not given) [3'-O-Methylcytidine] |
| 5.8 min | COC1C(CO)OC(n2cnc3c(=O)[nH]c(N)nc32)C1O (stereo not given) [3'-O-Methylguanosine] |
| 2.42 min | COC1C(CO)OC(n2ccc(=O)[nH]c2=O)C1O (stereo not given) [3'-O-Methyluridine] |
| 2.3 min | O=C(O)C(O)c1ccc(O)c(O)c1 (stereo not given) [3,4-Dihydroxymandelic acid] |
| 8.31 min | NC(Cc1ccc(O)c(O)c1)C(=O)O (stereo not given) [3,4-Dihydroxyphenylalanine] |
| 7.54 min | NC(Cn1cccn1)C(=O)O (stereo not given) [3-(1-Pyrazolyl)-alanine] |
| 7.42 min | NC(CC(=O)O)c1ccc(O)cc1 (stereo not given) [3-Amino-3-(4-hydroxyphenyl)propionic acid] |
| 7.4 min | CC(CN)C(=O)O (stereo not given) [3-Aminoisobutyric acid] |
| 8.06 min | Nc1cc(CC(N)C(=O)O)ccc1O (stereo not given) [3-Aminotyrosine] |
| 7.13 min | NC(Cc1ccc(O)c(Cl)c1)C(=O)O (stereo not given) [3-Chlorotyrosine] |
| 2.87 min | O=c1ccn(C2OC(CO)CC2O)c(=O)[nH]1 (stereo not given) [3-Deoxyuridine] |
| 8.15 min | NC(N)=NCCC(=O)O [3-Guanidinopropionic acid] |
| 1.48 min | Nc1c(O)cccc1C(=O)O [3-Hydroxyanthranilic acid] |

| SMILES | LC retention time |
| --- | --- |
| C=C(C)CN1CCC23c4c5ccc(O)c4OC2c2[nH]c4ccccc4c2CC3(O)C1C5 (stereo not given) | 2.93 min |
| CN1CCC2(c3cccc(O)c3)Cc3nc4ccccc4cc3CC2C1 (stereo not given) | 5.11 min |
| COC(=O)N1CCN(C(=O)Cc2ccc(Cl)c(Cl)c2)C(CN2CCCC2)C1 (stereo not given) | 2.56 min |
| COc1ccc2[nH]cc(C3=CCNCC3)c2c1 | 4.61 min |
| c1ccc(Cn2ccnc2)cc1 [1-Benzylimidazole] | 1.63 min |
| NCCc1ccccn1 [2-(2-Aminoethyl)pyridine] | 5.52 min |
| NCC(=O)c1ccccc1 [2-Aminoacetophenone] | 1.08 min |
| NCCP(=O)(O)O [2-Aminoethylphosphonic acid] | 9.39 min |
| NC(=O)Cc1ccccc1 [2-Phenylacetamide] | 1.26 min |
| COc1ccc(C=O)cc1OC [3,4-Dimethoxybenzaldehyde] | 1.08 min |
| CCNC(C)Cc1ccc2c(c1)OCO2 (stereo not given) [3,4-Methylenedioxyethamphetamine] | 2.94 min |
